Experimental data reported in publication PMC9511493, “2-(Fluoromethoxy)-4′-(S-methanesulfonimidoyl)-1,1′-biphenyl (UCM-1306), an Orally Bioavailable Positive Allosteric Modulator of the Human Dopamine D1 Receptor for Parkinson’s Disease” (Journal of Medicinal Chemistry, 2022).
“And” between values parts separate entries of the source, which are not always exact repeats. Equal entries are not always repeated.

Assays:
human D1R = molecular target: T1, human D1R (Homo sapiens, UniProt P21728); assay: potentiator-mode cAMP assay (HTRF) in SK-N-MC neuroblastoma cells endogenously expressing human D1R; format: cell-based; conditions: for EC50: potency of the compound at the DA EC70 concentration
T1 construct: endogenously expressed human D1R in the SK-N-MC cell line (ATCC); host or cells: SK-N-MC human neuroblastoma cells
T1 sequence (P21728 whole entry): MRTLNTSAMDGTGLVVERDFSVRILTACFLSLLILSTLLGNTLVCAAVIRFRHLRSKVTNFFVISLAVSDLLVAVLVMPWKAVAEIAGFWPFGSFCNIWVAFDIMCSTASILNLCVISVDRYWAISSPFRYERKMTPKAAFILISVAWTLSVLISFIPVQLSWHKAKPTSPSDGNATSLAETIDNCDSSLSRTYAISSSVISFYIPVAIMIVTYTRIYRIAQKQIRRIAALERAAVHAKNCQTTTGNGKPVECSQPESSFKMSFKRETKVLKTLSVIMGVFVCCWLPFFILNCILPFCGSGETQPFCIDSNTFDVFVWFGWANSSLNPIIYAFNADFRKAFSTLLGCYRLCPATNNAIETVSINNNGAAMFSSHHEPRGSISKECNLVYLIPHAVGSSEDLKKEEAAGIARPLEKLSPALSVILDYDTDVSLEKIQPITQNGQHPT
Experimental: An in-house chemical library of 250 compounds was screened using an in vitro assay measuring accumulation of cAMP in a human neuroblastoma SK-N-MC cell line stably expressing physiological levels of the D1R but not the D5R.[41] To assess allosteric modulation of the D1R, cells were treated with a fixed concentration of the test compounds (10 μM) for 15 min and then co-incubated with increasing concentrations of the endogenous agonist DA. The cAMP concentration was quantified by homogeneous time-resolved fluorescence energy transfer (HTRF) and the effect of each compound on the DA concentration–response curve was measured.
The PAM efficacy was measured as the percentage of increase over DA EC70 and the potency as the EC50 observed in the concentration–response curve.
Functional studies at human D1 and D2 receptors were carried out in endogenously expressed human D1R in the SK-N-MC cell line (ATCC), and recombinant human D2R stably transfected in an in-house CHO cell line. Cells were thawed and seeded into a black 96-well plate (1 × 10^4 cells/well for SK-N-MC cell line, 5 × 10^3 cells/well for CHO cell line) in Opti-MEM containing 500 μM IBMX (3-isobutyl-1-methylxanthine).

human D4R = molecular target: T2, human D4R (Homo sapiens, UniProt P21917); assay: PatHunter beta-arrestin assay at human D4R; format: cell-based; conditions: 10 μM compound
T2 construct: host or cells: cells supplied with the PatHunter Beta-arrestin eXpress GPCR assay kit
T2 sequence (P21917 1-419): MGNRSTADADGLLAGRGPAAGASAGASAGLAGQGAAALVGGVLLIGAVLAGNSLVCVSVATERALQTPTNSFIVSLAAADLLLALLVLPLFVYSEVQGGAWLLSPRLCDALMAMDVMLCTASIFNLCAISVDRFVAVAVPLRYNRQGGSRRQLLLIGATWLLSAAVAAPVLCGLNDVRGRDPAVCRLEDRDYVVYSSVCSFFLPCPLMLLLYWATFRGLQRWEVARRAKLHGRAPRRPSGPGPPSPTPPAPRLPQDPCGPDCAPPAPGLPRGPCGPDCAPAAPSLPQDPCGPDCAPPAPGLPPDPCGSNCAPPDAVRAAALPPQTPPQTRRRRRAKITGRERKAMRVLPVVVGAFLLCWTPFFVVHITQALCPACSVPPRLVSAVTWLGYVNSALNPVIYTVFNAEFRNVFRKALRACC
Experimental: Functional studies at both human D3 and D4 receptors were carried out in human D3 and D4 receptors, using a PatHunter Beta-arrestin eXpress GPCR assay kit from DiscoverX. Briefly, cells were plated and maintained for 48 h at 37 °C in a 5% CO2 atmosphere in cell plating reagent provided in the kit. After this time, test compounds were added to the cells and incubated for 30 min at 37 °C. Dopamine was added to the cells and incubated for an additional 90 min at 37 °C. Cells were then treated with the working detection solution provided with the kit for 1 h and beta-arrestin translocation was measured by luminescence detection (integration time = 500 ms) in a Tecan M1000 Genius Pro reader. Data were normalized to dopamine maximum effect and fitted to a 4-parameter logistic equation using Prism v2.1 software (GraphPad Inc).

human D5R = molecular target: T3, human D5R (Homo sapiens, UniProt P21918); assay: cAMP Hunter eXpress DRD5 assay at human D5R; format: cell-based; conditions: 10 μM compound
T3 construct: host or cells: cells supplied with the cAMP Hunter eXpress DRD5 assay kit
T3 sequence (P21918 whole entry): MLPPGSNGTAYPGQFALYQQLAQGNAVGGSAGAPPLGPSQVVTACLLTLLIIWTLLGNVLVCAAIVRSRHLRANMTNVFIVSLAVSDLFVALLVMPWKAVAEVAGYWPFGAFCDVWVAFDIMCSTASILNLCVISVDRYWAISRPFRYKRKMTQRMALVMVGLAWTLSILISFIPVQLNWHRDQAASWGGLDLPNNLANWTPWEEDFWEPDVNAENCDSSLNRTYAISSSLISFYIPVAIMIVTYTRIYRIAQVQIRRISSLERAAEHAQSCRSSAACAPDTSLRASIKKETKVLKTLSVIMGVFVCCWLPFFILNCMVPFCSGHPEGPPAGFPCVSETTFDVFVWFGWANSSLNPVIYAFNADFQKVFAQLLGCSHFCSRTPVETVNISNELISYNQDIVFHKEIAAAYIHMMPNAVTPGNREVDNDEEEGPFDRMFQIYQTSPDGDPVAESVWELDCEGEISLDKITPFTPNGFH
Experimental: Functional studies at human D5R receptors were carried out in human D5R, using a cAMP Hunter eXpress DRD5 assay kit from DiscoverX. Briefly, cells were plated and maintained for 24 h at 37 °C in a 5% CO2 atmosphere in the cell plating reagent provided in the kit. After this time, test compounds were added to the cells and incubated for 15 min at 37 °C, followed by treatment with dopamine and incubation for an additional 30 min at 37 °C. Cells were then treated with the cAMP working detection solution provided with the kit for 1 h, and then cAMP solution A was added and incubated for 3 h at rt. cAMP formation was measured by luminescence detection (integration time = 500 ms) in a Tecan M1000 Genius Pro reader. Data were normalized to dopamine maximum effect and fitted to a 4-parameter logistic equation using Prism v2.1 software (GraphPad Inc).

CYP3A4 = molecular target: T4, CYP3A4 (Homo sapiens, UniProt P08684); assay: cytochrome inhibition, fluorescence assay, CYP3A4; format: in vitro ADME
T4 construct: host or cells: insect cell microsomes
T4 sequence (P08684 whole entry): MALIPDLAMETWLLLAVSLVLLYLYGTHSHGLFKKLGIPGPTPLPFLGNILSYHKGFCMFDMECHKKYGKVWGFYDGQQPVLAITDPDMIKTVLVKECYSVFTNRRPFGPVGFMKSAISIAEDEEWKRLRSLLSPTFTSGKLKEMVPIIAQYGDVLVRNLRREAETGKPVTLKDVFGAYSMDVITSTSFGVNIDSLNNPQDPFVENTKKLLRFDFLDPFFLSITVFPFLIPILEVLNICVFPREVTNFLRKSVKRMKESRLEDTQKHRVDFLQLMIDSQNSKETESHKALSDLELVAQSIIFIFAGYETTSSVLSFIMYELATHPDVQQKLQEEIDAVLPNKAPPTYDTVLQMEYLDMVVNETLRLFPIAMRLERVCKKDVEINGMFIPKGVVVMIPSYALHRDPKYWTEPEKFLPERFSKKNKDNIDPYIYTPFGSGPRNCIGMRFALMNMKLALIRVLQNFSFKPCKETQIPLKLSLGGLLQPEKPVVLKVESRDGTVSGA
Experimental: Cytochrome inhibition. The objective of this study was to screen the potential of test […]
performed using recombinant isoforms CYP1A2, CYP2C9, CYP2C19, CYP2D6, and CYP3A4, and probe substrates with fluorescent detection.
Assays were conducted in a 200 µL volume in 96-well microtiter plates (COSTAR 3915).
Addition of cofactor-buffer mixture (KH2PO4 buffer, 1.3 mM NADP, 3.3 mM MgCl2, 3.3 mM glucose -6- phosphate, and 0.4 U/mL glucose -6- phosphate dehydrogenase), supersomes control, standard inhibitors (furafyline, tranylzypromine, ketoconazole, sulfaphenazole, and quinidine from Sigma Aldrich) and test compound to the plate was carried out by a liquid handling station (Zephyr Caliper). The plate was then pre-incubated at 37 °C for 5 min, and the reaction was initiated by the addition of the pr e - warmed enzyme/substrate (E/S) mix. […]
Fluorescence per well was measured using a fluorescence plate reader (Tecan Infinite M1000 pro) and percentage of inhibition was calculated. hERG ion channel inhibition. […]

Compound | EC50 (human D1R) [nM] | enhancement of DA Emax at human D4 receptor (human D4R) | enhancement of DA Emax at human D5 receptor (human D5R) | IC50 (CYP3A4; read-out: CYP34A (IC50)) [nM] | Emax (human D1R; SK-N-MC, concentration–response curve of the compound over DA EC70, read-out: % maximum increase (efficacy over DA EC70)) [%] | CYP34A (%) (CYP3A4; percentage of inhibition at 10 μM)
O=Cc1ccc(-c2ccccc2OCF)cc1 [Compound 3, 2′-(Fluoromethoxy)[1,1′-biphenyl]-4-carbaldehyde] | 12700 ± 2400 | did not enhance DA Emax | did not enhance DA Emax | 2820 ± 320 | – | –
CS(=N)(=O)c1ccc(-c2ccccc2OCF)cc1 (stereo not drawn) [Compound 26, 2-(Fluoromethoxy)-4′-(S-methanesulfonimidoyl)-1,1′-biphenyl] | 60 ± 10 | subtype selectivity | subtype selectivity | – | 45 ± 7 | 9% and 9 ± 1%
